Results taken from patent publication US8673908B2, “Kynurenine production inhibitor” (Kyowa Hakko Kirin Co., Ltd., priority 2008, dated 2014).

Tested on: kynurenine production in IFN-γ-treated KATO-III cells
Assay: Inhibitory activity on kynurenine production (Test Example 1)
Type: cell-based
Conditions: Homo sapiens, IFN-γ treatment, culture for 96 hours, read-out: IC50 value, inhibition of kynurenine production
Description: This assay was performed according to a method modified from the method described in the Journal of Biological Chemistry (J. Biol. Chem.), vol. 263, pp. 2041-2048 (1988). Culture of KATO-III derived from human gastric cancer cells was performed by use of RPMI 1640 (GIBCO, 11875) supplemented with 10 vol % FBS (GIBCO, 10091-148, lot. 665285). 1 μL of a DMSO solution of the test substance was diluted with 199 μL of the culture medium, and the diluted solution was added to wells of a 384 well plate (10 μL/well). Then, IFN-γ (Sigma, 1-3265) was added to the culture medium so that the concentration of IFN-γ was 31.25 ng/mL, and the KATO-III cells were suspended at 50,000 cells/ml, in the culture medium. 40 μL of the suspension was added to each well (2,000 cells/well), and culture of the KATO-III cells was performed at 37° C. under a 5% CO2 atmosphere for 96 hours. The final concentration of DMSO was limited to 0.1 vol % or less so that DMSO itself might not affect the kynurenine concentration measured by this assay. After the culture, 10 μL of a 30 w/v % aqueous trichloroacetic acid solution was added to each well, and incubation was performed at 65° C. for 30 minutes. The plate was centrifuged at 2,500×g for 5 minutes, and then 15 μL of the supernatant in each well was transferred into another 384 well plate. To each of the transferred supernatants, 15 μL of a 2 w/v % solution of p-dimethylaminobenzaldehyde in acetic acid was added, incubation was performed at 65° C. for 20 minutes, and then the absorbance at 480 nm was measured.
[formula] Sample: the absorbance value of the well to which a DMSO solution containing the test substance was added and in which cells were treated with IFN-γ. Blank: the absorbance value of the well to which only DMSO, not the test substance was added and in which cells were treated with IFN-γ. Control: the absorbance value of the well to which only DMSO, not the test substance was added and in which cells were not treated with IFN-γ.
In this assay, expression of IDO in KATO-III cells is induced by IFN-γ treatment and then kynurenine in the culture medium is quantified. It is known that the kynurenine concentration in a culture medium increases in proportion to the enzymatic activity of intracellular IDO (for example, the Journal of Biological Chemistry (J. Biol. Chem.), vol. 263, pp. 2041-2048 (1988)). […] It is known that kynurenine production is inhibited by IDO inhibitors (for example, the Journal of Clinical Investigation (J. Clin. Invest.), vol. 117, No. 5, pp. 1147-1154 […]), and thus it is expected that Compound (I) also has an inhibitory effect on IDO.

IC50, < 1 µM:
O=S(=O)(Nc1nc2ccccc2nc1OC(c1ccc(Cl)cc1)C(F)(F)F)c1ccccc1Cl (centres unmarked) [Compound 53, 2-chloro-N-{3-[2,2,2-trifluoro-1-(4-chlorophenyl)ethoxy]-quinoxalin-2-yl}benzenesulfonamide]
N#Cc1ccc(C(Oc2nc3ccccc3nc2NS(=O)(=O)c2ccccc2Cl)C(F)(F)F)cn1 (centres unmarked) [Compound 54, 2-chloro-N-{3-[2,2,2-trifluoro-1-(6-cyanopyridin-3-yl)-ethoxy]quinoxalin-2-yl}benzenesulfonamide]
COCOc1ccc(C(Oc2nc3ccccc3nc2NS(=O)(=O)c2ccccc2Cl)C(F)(F)F)cc1 (centres unmarked) [Compound 56, 2-chloro-N-{3-[2,2,2-trifluoro-1-(4-methoxymethoxyphenyl)-ethoxy]quinoxalin-2-yl}benzenesulfonamide]
O=Cc1ccc(C(Oc2nc3ccccc3nc2NS(=O)(=O)c2ccccc2Cl)C(F)(F)F)cc1 (centres unmarked) [Compound 58, 2-chloro-N-{3-[2,2,2-trifluoro-1-(4-formylphenyl)ethoxy]-quinoxalin-2-yl}benzenesulfonamide]
O=S(=O)(Nc1nc2ccccc2nc1OC(c1ccc(F)cc1)C(F)(F)F)c1ccccc1Cl (centres unmarked) [Compound 59, 2-chloro-N-{3-[2,2,2-trifluoro-1-(4-fluorophenyl)ethoxy]-quinoxalin-2-yl}benzenesulfonamide]
O=S(=O)(Nc1nc2ccccc2nc1OC(c1ccc(CO)cc1)C(F)(F)F)c1ccccc1Cl (centres unmarked) [Compound 60, 2-chloro-N-{3-[2,2,2-trifluoro-1-(4-hydroxymethylphenyl)-ethoxy]quinoxalin-2-yl}benzenesulfonamide]
CN(C)Cc1ccc(C(Oc2nc3ccccc3nc2NS(=O)(=O)c2ccccc2Cl)C(F)(F)F)cc1 (centres unmarked) [Compound 62, 2-chloro-N-{3-[2,2,2-trifluoro-1-(4-dimethylaminomethyl-phenyl)ethoxy]quinoxalin-2-yl}benzenesulfonamide]
CN(C)C(=O)c1ccc(C(Oc2nc3ccccc3nc2NS(=O)(=O)c2ccccc2Cl)C(F)(F)F)cc1 (centres unmarked) [Compound 63, 2-chloro-N-{3-[2,2,2-trifluoro-1-(4-dimethylcarbamoyl-phenyl)ethoxy]quinoxalin-2-yl}benzenesulfonamide]
COc1ccc(C(Oc2nc3ccccc3nc2NS(=O)(=O)c2ccccc2Cl)C(F)(F)F)cn1 (centres unmarked) [Compound 64, 2-chloro-N-{3-[2,2,2-trifluoro-1-(6-methoxypyridin-3-yl)-ethoxy]quinoxalin-2-yl}benzenesulfonamide]
CC(C)(C#N)C(Oc1nc2ccccc2nc1NS(=O)(=O)c1ccccc1Cl)c1cccnc1 (centres unmarked) [Compound 67, 2-chloro-N-{3-[2-cyano-2-methyl-1-(pyridin-3-yl)propoxy]-quinoxalin-2-yl}benzenesulfonamide]
Cc1ccc(C(Oc2nc3ccccc3nc2NS(=O)(=O)c2c(C)nn(C)c2Cl)C(F)(F)F)cn1 (centres unmarked) [Compound 69, 5-chloro-1,3-dimethyl-N-{3-[2,2,2-trifluoro-1-(6-methylpyridin-3-yl)ethoxy]quinoxalin-2-yl}-1H-pyrazole-4-sulfonamide]
Cc1ccc(C(Oc2nc3ccccc3nc2NS(=O)(=O)c2c(C)noc2C)C(F)(F)F)cn1 (centres unmarked) [Compound 70, 3,5-dimethyl-N-{3-[2,2,2-trifluoro-1-(6-methylpyridin-3-yl)ethoxy]quinoxalin-2-yl}isoxazole-4-sulfonamide]
COc1cncc(C(Oc2nc3ccccc3nc2NS(=O)(=O)c2ccccc2Cl)C(F)(F)F)c1 (centres unmarked) [Compound 71, 2-chloro-N-{3-[2,2,2-trifluoro-1-(5-methoxypyridin-3-yl)-ethoxy]quinoxalin-2-yl}benzenesulfonamide]
O=S(=O)(Nc1nc2ccccc2nc1OC(c1cccnc1)C1CCOCC1)c1ccccc1Cl (centres unmarked) [Compound 73, 2-chloro-N-{3-[tetrahydropyran-4-yl(pyridin-3-yl)methoxy]-quinoxalin-2-yl}benzenesulfonamide]
